Broadly, the inhibition is the relative decrease from the control value, in per cent. Broadly, the Ki is a dissociation constant, usually derived from enzyme kinetics or from competition with a known ligand.

T3 sequence (P28223 whole entry): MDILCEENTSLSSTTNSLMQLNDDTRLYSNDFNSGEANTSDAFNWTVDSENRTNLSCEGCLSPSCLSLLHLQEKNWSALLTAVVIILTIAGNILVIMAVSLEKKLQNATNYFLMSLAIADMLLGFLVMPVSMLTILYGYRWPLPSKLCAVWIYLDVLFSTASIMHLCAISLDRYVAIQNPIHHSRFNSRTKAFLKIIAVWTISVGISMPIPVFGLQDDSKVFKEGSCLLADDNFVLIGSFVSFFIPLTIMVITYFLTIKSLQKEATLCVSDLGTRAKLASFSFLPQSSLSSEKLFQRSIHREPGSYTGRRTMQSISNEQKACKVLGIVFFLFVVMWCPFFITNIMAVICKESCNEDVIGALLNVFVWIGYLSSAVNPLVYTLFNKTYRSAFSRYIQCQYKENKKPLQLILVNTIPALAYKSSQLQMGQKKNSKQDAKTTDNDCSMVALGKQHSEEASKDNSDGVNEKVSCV
Adenosine receptor A2a, sequence (P29274 whole entry): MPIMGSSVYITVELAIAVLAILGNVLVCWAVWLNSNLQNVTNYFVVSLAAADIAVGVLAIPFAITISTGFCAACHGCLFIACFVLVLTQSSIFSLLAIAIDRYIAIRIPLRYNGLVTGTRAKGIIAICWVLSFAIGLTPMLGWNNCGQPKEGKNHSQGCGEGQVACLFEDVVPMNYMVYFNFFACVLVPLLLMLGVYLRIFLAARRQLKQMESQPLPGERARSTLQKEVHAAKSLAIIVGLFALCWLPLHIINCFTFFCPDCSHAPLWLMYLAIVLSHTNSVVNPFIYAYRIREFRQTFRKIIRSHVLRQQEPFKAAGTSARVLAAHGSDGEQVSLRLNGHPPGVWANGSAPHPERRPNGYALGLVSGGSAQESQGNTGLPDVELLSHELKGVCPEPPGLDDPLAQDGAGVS
5-hydroxytryptamine receptor 1B (Homo sapiens), sequence (P28222 whole entry): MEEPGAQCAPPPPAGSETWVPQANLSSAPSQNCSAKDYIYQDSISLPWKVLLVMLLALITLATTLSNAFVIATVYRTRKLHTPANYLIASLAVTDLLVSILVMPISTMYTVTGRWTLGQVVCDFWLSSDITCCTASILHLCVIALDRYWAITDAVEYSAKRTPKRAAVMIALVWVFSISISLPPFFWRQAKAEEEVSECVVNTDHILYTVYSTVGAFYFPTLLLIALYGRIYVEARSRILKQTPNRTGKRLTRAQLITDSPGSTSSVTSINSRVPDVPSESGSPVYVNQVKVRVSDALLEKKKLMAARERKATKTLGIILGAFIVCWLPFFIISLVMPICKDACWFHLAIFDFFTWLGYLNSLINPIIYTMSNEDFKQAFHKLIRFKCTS
5-hydroxytryptamine receptor 6 (Homo sapiens), sequence (P50406 whole entry): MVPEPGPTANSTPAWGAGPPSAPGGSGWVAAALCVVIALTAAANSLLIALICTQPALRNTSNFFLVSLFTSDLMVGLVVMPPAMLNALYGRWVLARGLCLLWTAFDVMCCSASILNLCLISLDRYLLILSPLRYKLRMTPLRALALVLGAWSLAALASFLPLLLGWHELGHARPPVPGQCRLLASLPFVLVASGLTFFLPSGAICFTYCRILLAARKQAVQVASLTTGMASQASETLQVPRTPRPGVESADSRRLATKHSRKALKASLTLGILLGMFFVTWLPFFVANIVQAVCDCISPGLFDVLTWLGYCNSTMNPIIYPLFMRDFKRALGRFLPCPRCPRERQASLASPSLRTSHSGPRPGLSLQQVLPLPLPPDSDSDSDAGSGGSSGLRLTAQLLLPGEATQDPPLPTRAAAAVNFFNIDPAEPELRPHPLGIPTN

One experiment deals with T1, 5-hydroxytryptamine receptor 1A (Homo sapiens) (UniProt P08908).
T1 sequence (whole entry): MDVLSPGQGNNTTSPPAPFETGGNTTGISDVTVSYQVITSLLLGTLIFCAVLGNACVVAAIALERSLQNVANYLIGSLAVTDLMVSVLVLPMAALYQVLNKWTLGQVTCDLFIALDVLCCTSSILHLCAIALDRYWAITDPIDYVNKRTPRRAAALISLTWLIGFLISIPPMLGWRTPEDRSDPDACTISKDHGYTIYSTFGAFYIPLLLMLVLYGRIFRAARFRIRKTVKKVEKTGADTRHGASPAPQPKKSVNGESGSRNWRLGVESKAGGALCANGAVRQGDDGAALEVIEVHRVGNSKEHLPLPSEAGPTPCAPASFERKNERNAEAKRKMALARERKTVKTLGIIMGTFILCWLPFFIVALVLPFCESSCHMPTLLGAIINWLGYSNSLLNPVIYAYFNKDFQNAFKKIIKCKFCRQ
The experiment is described as follows: Displacement of [3H]WAY100635 from human 5-HT1AR expressed in CHO cell membranes at 10 uM incubated for 90 mins under dark condition by microbeta scintillation counting method relative to control.
Conditions: not given
Regarding `OC[C@@]12C[C@@H]1[C@@H](n1cnc3c(N[C@H](C4CCC4)C4CC4)nc(Cl)nc31)[C@H](O)[C@@H]2O`, the inhibition was less than 50%.

In the next experiment the target is 5-hydroxytryptamine receptor 4 (Homo sapiens) (UniProt Q13639). The experiment is described as follows: Displacement of [3H]GR113808 from human 5-HT4 receptor at 10 uM incubated for 90 mins under dark condition by microbeta scintillation counting method relative to control.
5-hydroxytryptamine receptor 4 (Homo sapiens), sequence (Q13639 whole entry): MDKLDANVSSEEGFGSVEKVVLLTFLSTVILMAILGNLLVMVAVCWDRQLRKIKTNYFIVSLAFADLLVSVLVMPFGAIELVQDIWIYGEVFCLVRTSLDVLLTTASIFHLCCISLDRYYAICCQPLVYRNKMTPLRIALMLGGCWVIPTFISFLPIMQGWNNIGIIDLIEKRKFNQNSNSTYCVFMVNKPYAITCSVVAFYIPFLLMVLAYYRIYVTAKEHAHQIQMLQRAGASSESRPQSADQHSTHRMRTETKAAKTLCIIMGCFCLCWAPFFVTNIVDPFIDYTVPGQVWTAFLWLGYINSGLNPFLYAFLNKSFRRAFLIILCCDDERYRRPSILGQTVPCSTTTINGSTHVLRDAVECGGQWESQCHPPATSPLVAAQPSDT
Conditions: not given
In general terms: Displacement assays read how much labelled ligand stays bound in the presence of the test substance.
Regarding `OC[C@@]12C[C@@H]1[C@@H](n1cnc3c(N[C@H](C4CCC4)C4CC4)nc(Cl)nc31)[C@H](O)[C@@H]2O`, the inhibition is less than 50%.

The target of another experiment is T2, 5-hydroxytryptamine receptor 2C (Homo sapiens, UniProt P28335).
T2 sequence (P28335 whole entry): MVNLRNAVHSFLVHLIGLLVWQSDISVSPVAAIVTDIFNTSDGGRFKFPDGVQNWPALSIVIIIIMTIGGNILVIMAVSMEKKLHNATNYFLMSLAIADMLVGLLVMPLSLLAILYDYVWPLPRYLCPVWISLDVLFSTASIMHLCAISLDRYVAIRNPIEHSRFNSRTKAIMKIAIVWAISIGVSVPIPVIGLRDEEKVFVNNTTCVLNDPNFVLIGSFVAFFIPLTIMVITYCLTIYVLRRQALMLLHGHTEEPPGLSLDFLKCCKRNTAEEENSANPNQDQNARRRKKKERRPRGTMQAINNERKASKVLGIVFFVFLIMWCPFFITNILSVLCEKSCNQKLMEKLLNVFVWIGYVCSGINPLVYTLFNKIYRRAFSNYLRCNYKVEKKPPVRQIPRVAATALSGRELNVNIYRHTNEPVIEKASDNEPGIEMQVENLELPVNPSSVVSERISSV
The experiment is described as follows: Displacement of [3H]mesulergine from human 5-HT2CR expressed in Flp-In HEK cell membranes incubated for 90 mins under dark condition by microbeta scintillation counting method. Set-up: species or system HEK293.
Conditions: not given
For the compound `OC[C@@]12C[C@@H]1[C@@H](n1cnc3c(N[C@H](C4CCC4)C4CC4)nc(Cl)nc31)[C@H](O)[C@@H]2O`, the Ki stood at 298 nM.

The target in another experiment is 5-hydroxytryptamine receptor 1E (Homo sapiens) (UniProt P28566). In words: Displacement of [3H]5-HT from human 5-HT1E receptor expressed in HEK cell membranes at 10 uM incubated for 90 mins under dark condition by microbeta scintillation counting method relative to control. To be noted: HEK293.
5-hydroxytryptamine receptor 1E (Homo sapiens), sequence (P28566 whole entry): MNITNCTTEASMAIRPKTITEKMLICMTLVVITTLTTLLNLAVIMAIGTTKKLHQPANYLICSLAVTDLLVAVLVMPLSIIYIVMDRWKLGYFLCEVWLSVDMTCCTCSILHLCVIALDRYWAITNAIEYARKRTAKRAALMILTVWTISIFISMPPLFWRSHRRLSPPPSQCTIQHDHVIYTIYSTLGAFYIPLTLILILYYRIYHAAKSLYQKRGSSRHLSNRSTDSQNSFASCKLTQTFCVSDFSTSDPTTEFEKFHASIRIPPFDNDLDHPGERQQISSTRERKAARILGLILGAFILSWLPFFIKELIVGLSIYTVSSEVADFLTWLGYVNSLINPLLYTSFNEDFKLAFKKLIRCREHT
Take `OC[C@@]12C[C@@H]1[C@@H](n1cnc3c(N[C@H](C4CCC4)C4CC4)nc(Cl)nc31)[C@H](O)[C@@H]2O`: the inhibition was less than 50%.

Another experiment has as its target T3, 5-hydroxytryptamine receptor 2A (Homo sapiens, UniProt P28223). The experiment is described as follows: Displacement of [3H]ketanserin from human 5-HT2A receptor expressed in HEK-T cell membranes incubated for 90 mins under dark condition by microbeta scintillation counting method.
Conditions: not given
`OC[C@@]12C[C@@H]1[C@@H](n1cnc3c(N[C@H](C4CCC4)C4CC4)nc(Cl)nc31)[C@H](O)[C@@H]2O` yielded a Ki of more than 10000 nM.

Another experiment concerns the target 5-hydroxytryptamine receptor 6 (Homo sapiens) (UniProt P50406). The experiment is described as follows: Displacement of [3H]LSD from human 5-HT6 receptor expressed in HEK cell membranes at 10 uM incubated for 90 mins under dark condition by microbeta scintillation counting method relative to control. Conditions: HEK293.
In turn, `OC[C@@]12C[C@@H]1[C@@H](n1cnc3c(N[C@H](C4CCC4)C4CC4)nc(Cl)nc31)[C@H](O)[C@@H]2O` registered an inhibition of less than 50%.

The next experiment deals with T4, 5-hydroxytryptamine receptor 3A (Homo sapiens) (UniProt P46098).
T4 sequence (whole entry): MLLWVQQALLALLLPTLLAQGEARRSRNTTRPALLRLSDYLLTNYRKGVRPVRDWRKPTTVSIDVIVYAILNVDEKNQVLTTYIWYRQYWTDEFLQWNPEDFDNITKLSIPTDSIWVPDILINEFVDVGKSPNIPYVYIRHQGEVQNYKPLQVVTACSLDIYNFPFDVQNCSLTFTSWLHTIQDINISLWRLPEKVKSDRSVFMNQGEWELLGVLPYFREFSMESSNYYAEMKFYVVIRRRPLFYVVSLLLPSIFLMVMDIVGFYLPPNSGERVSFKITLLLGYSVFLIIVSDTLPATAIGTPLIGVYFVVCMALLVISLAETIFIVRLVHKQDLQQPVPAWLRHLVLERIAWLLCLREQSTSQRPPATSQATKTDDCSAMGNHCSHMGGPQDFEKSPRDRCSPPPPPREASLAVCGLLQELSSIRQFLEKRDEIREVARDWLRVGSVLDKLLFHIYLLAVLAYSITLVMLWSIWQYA
In words: Displacement of [3H]GR65630 from human 5-HT3 receptor expressed in HEK-T cell membranes at 10 uM incubated for 90 mins under dark condition by microbeta scintillation counting method relative to control.
Conditions: not given
In the case of `OC[C@@]12C[C@@H]1[C@@H](n1cnc3c(N[C@H](C4CCC4)C4CC4)nc(Cl)nc31)[C@H](O)[C@@H]2O`, the inhibition was less than 50%.

The next experiment addresses T5, 5-hydroxytryptamine receptor 2C (Homo sapiens) (UniProt P28335).
T5 sequence (whole entry): T2 sequence (P28335 whole entry)
In words: Displacement of [3H]mesulergine from human 5-HT2CR expressed in Flp-In HEK cell membranes at 10 uM incubated for 90 mins under dark condition by microbeta scintillation counting method relative to control. To be noted: HEK293.
Consider `OC[C@@]12C[C@@H]1[C@@H](n1cnc3c(N[C@H](C4CCC4)C4CC4)nc(Cl)nc31)[C@H](O)[C@@H]2O`, for which the inhibition was more than 50%.

The next experiment has as its target 5-hydroxytryptamine receptor 1B (Homo sapiens) (UniProt P28222). The experiment is described as follows: Displacement of [3H]5-CT from human 5-HT1BR expressed in HEK cell membranes at 10 uM incubated for 90 mins under dark condition by microbeta scintillation counting method relative to control. To be noted: HEK293.
For `OC[C@@]12C[C@@H]1[C@@H](n1cnc3c(N[C@H](C4CCC4)C4CC4)nc(Cl)nc31)[C@H](O)[C@@H]2O`, the inhibition was less than 50%.

For another experiment, the target named is 5-hydroxytryptamine receptor 5A (Homo sapiens) (UniProt P47898). The experiment is described as follows: Displacement of [3H]LSD from human 5-HT5A receptor expressed in Flp-In-CHO cell membranes incubated for 90 mins under dark condition by microbeta scintillation counting method relative to control. Also noted: concentration or dose not given beside the values.
5-hydroxytryptamine receptor 5A (Homo sapiens), sequence (P47898 whole entry): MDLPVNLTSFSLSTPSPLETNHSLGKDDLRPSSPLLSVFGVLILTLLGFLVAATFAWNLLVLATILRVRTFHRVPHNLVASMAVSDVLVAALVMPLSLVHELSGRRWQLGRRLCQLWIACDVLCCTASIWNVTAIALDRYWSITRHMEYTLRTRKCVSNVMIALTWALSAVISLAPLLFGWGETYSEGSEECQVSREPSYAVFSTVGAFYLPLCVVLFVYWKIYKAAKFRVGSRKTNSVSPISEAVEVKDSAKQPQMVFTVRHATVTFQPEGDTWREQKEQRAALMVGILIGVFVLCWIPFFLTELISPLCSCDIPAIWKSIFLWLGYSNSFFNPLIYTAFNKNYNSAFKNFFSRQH
Conditions: not given
As to `OC[C@@]12C[C@@H]1[C@@H](n1cnc3c(N[C@H](C4CCC4)C4CC4)nc(Cl)nc31)[C@H](O)[C@@H]2O`, the inhibition is less than 50%.

The next experiment has as its target Adenosine receptor A2a (Homo sapiens, UniProt P29274). The experiment is described as follows: Displacement of [3 H]2-[p-(2-carboxyethyl)phenyl-ethylamino]-5'-N-ethylcarboxamidoadenosine from recombinant human adenosine receptor A2A expressed in HEK293 cell membranes after 60 mins by liquid scintillation counting method.
Conditions: not given
With `OC[C@@]12C[C@@H]1[C@@H](n1cnc3c(N[C@H](C4CCC4)C4CC4)nc(Cl)nc31)[C@H](O)[C@@H]2O`, the Ki was determined as 2690 nM.

The target in the next experiment is 5-hydroxytryptamine receptor 1D (Homo sapiens) (UniProt P28221). In words: Displacement of [3H]5-CT from human 5-HT1D receptor expressed in HEK-T cell membranes at 10 uM incubated for 90 mins under dark condition by microbeta scintillation counting method relative to control.
5-hydroxytryptamine receptor 1D (Homo sapiens), sequence (P28221 whole entry): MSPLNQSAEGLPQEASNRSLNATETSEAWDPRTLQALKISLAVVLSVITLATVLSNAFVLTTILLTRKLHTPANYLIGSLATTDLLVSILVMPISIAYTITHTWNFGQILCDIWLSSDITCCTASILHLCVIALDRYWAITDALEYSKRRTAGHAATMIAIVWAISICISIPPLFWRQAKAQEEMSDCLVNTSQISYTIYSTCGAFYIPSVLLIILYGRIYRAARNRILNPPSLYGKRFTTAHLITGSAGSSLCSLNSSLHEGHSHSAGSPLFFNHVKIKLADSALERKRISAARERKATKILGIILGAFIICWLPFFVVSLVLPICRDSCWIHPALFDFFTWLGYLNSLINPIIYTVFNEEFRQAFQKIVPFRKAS
Conditions: not given
For the compound `OC[C@@]12C[C@@H]1[C@@H](n1cnc3c(N[C@H](C4CCC4)C4CC4)nc(Cl)nc31)[C@H](O)[C@@H]2O`, the inhibition is less than 50%.

The target in the next experiment is T6, Adenosine receptor A1 (Homo sapiens, UniProt P30542).
T6 sequence (P30542 whole entry): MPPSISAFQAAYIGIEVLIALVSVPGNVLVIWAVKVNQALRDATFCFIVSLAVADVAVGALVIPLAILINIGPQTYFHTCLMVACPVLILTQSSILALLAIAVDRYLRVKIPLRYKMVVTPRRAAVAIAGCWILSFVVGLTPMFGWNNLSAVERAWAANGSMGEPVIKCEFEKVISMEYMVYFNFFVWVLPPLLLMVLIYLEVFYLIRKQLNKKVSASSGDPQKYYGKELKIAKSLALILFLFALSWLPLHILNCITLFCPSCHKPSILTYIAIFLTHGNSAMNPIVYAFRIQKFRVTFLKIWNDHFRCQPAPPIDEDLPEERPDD
In words: Displacement of [3H]N6-phenylisopropyladenosine from recombinant human A1AR expressed in CHO cell membranes after 60 mins by liquid scintillation counting method.
Conditions: not given
On to `OC[C@@]12C[C@@H]1[C@@H](n1cnc3c(N[C@H](C4CCC4)C4CC4)nc(Cl)nc31)[C@H](O)[C@@H]2O`, for which the Ki was determined as 298 nM.

Another experiment deals with 5-hydroxytryptamine receptor 7 (Homo sapiens) (UniProt P34969). In words: Displacement of [3H]LSD from human 5-HT7A receptor expressed in HEK cell membranes at 10 uM incubated for 90 mins under dark condition by microbeta scintillation counting method relative to control. To be noted: HEK293.
5-hydroxytryptamine receptor 7 (Homo sapiens), sequence (P34969 whole entry): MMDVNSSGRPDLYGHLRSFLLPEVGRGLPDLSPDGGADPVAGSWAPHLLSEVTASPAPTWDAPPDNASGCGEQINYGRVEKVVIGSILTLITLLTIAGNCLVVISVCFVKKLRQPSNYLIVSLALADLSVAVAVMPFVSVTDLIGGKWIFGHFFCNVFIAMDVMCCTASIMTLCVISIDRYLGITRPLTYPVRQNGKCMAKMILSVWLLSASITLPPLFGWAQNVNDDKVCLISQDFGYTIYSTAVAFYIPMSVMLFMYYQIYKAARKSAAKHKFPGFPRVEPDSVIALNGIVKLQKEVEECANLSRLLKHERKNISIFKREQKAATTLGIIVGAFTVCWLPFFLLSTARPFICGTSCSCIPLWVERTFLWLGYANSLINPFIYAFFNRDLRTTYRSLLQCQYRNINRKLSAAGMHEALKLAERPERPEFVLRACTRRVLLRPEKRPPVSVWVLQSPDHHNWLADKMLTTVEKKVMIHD
For `OC[C@@]12C[C@@H]1[C@@H](n1cnc3c(N[C@H](C4CCC4)C4CC4)nc(Cl)nc31)[C@H](O)[C@@H]2O`, the inhibition was less than 50%.

For the next experiment, the target named is T3, 5-hydroxytryptamine receptor 2A. In words: Displacement of [3H]ketanserin from human 5-HT2A receptor expressed in HEK-T cell membranes at 10 uM incubated for 90 mins under dark condition by microbeta scintillation counting method relative to control.
Conditions: not given
In the case of `OC[C@@]12C[C@@H]1[C@@H](n1cnc3c(N[C@H](C4CCC4)C4CC4)nc(Cl)nc31)[C@H](O)[C@@H]2O`, the inhibition is less than 10%.

The record behind these values is ChEMBL document CHEMBL3862033 (J Med Chem, 2016).
